Our source for the IC50 values is ChEMBL document CHEMBL5728348, “1 H-pyrazol-1-yl-thiazoles as inhibitors of lactate dehydrogenase and methods of use thereof” (2021).

Structures are written as SMILES. A value given as a limit tells only on which side of the number the result lay.

The nature of the assay: Biochemical Assay: Test compounds were placed in a Greiner Bio-One (Monroe, N.C.) 1536-well black solid bottom assay plate. 200 millimolar (mM) Tris HCl, pH 7.4, 100 micromolar (μM) EDTA and 0.01% TWEEN-20, final concentration, was used as the assay buffer. The LDHA reagent was 2 nanomolar (nM) Human LDHA (Meridian Life Science, Inc., Memphis, Tenn.), final concentration, in assay buffer. The substrate reagent was 0.06 mM NADH and 0.2 mM sodium pyruvate, final concentration, in assay buffer. The resazurin/diaphorase coupling reagent was 0.037 mM resazurin and 0.133 milligrams per milliliter (mg/mL) diaphorase, final concentration, in assay buffer. The inhibition of LDHA activity was measured by fluorescence emission. Background: The colour change of resazurin is a common sign of viable cells or microbes.

By IC50 is commonly meant the concentration that gives 50% inhibition. Lower therefore signals inhibition by little substance. Consider `Cc1cc(-c2cccc(-c3nn(-c4nc(C(=O)O)cs4)c(CC4CC4)c3Cc3ccc([SH+](N)[O-])c(F)c3)c2)ccc1Cl` (stereo not given), for which the IC50 result is “in the range around 29000 nM”.
The same measure for `N[SH+]([O-])c1ccc(Cc2c(-c3ccc(F)c(C4=CCCO4)c3)nn(-c3nc(C(=O)O)cs3)c2CC2CC2)cc1F` (stereo not given): less than 100 nM.
The same measure for `N[SH+]([O-])c1ccc(Cc2c(-c3cccc(C#Cc4ccc(Cl)s4)c3)nn(-c3nc(C(=O)O)cs3)c2CC2CC2)cc1F` (stereo not given): less than 100 nM; for `Cc1ccc(-c2cccc(-c3nn(-c4nc(C(=O)O)cs4)c(CC4CC4)c3Cc3ccc([SH+](N)[O-])c(F)c3)c2)cc1F` (stereo not given): less than 100 nM.
The same measure for `N[S+](=O)([O-])c1ccc(Cc2c(-c3ccc(F)c(-c4ccc(Cl)c(F)c4)c3)nn(-c3nc(C(=O)O)cs3)c2CC2CC2)cc1F`: less than 100 nM.
With `COc1ccc(-c2cccc(-c3nn(-c4nc(C(=O)O)cs4)c(CC4CC4)c3Cc3ccc([SH+](N)[O-])c(F)c3)c2)cc1C` (stereo not given), the IC50 was less than 100 nM.
Take `CC(C)N1CC2(CN(c3cc(-c4nn(-c5nc(C(=O)O)cs5)c(CC5CC5)c4Cc4ccc([SH+](N)[O-])c(F)c4)ccc3F)C2)C1` (stereo not given): the concentration for half-maximal inhibition (IC50) is less than 100 nM.
The same measure for `COC1CC=C(c2cc(-c3nn(-c4nc(C(=O)O)cs4)c(CC4CC4)c3Cc3ccc([SH+](N)[O-])c(F)c3)ccc2F)CC1` (stereo not given): less than 100 nM.
As for `CC1CCCC=C1c1cc(-c2nn(-c3nc(C(=O)O)cs3)c(CC3CC3)c2Cc2ccc([SH+](N)[O-])c(F)c2)ccc1F` (stereo not given), the IC50 was less than 100 nM.
As to `COc1ccc(-c2cccc(-c3nn(-c4nc(C(=O)O)cs4)c(CC4CC4)c3Cc3ccc([SH+](N)[O-])c(F)c3)c2)cc1Cl` (stereo not given), the IC50 result is “in the range around 550 nM”.
The same measure for `Cc1cc(C)cc(-c2cc(-c3nn(-c4nc(C(=O)O)cs4)c(CC4CC4)c3Cc3ccc([SH+](N)[O-])c(F)c3)ccc2F)c1` (stereo not given): “in the range around 550 nM”; for `N[S+](=O)([O-])c1ccc(Cc2c(-c3ccc(F)c(-c4nc5ccccc5[nH]4)c3)nn(-c3nc(C(=O)O)cs3)c2CC2CC2)cc1F`: less than 100 nM; for `N[S+](=O)([O-])c1ccc(Cc2c(-c3cccc(-c4ccc5c(c4)CCCC5)c3)nn(-c3nc(C(=O)O)cs3)c2CC2CC2)cc1F`: “in the range around 550 nM”.
For the compound `N[S+](=O)([O-])c1ccc(Cc2c(-c3ccc(F)c(-c4cc(Cl)cc(Cl)c4)c3)nn(-c3nc(C(=O)O)cs3)c2CC2CC2)cc1F`, the IC50 result was “in the range around 550 nM”.
`Cc1ccc(C#Cc2cccc(-c3nn(-c4nc(B(O)O)cs4)c(CC4CC4)c3Cc3ccc([SH+](N)[O-])c(F)c3)c2)s1` (stereo not given): the 50% inhibitory concentration (IC50) entry is “in the range around 29000 nM”.
